Source: PMC6961345 (Antiviral Chemistry & Chemotherapy, 2018)
“And” between values parts separate entries of the source, which are not always exact repeats. Equal entries are not always repeated.

Tested on: A/Georgia/20/2006 (H1N1) H275Y
Format: cell-based, influenza A virus

`C[n+]1ccc(C(=O)NCc2ccccc2)cc1` [enisamium, N-methyl-4-benzylcarbamidopyridinium] was tested, and the EC90 was 144 µM and 286 µM.
